Measurements: US20170156324A1 (Dow AgroSciences LLC, priority 2015, published 2017)
Several values for one entry are separate records, joined by “and”; a condition that tells them apart may be missing. Identical values can stand only once.

Assays:
Assay type in all cases: in vivo
[1] = system: Matricaria inodora (scentless mayweed, MATIN); assay: Field trial, post-emergence % visual weed control, MATIN; conditions: 14DAA
Text: (§1) Except for the trials utilizing the OD formulations, Actirob B was applied at 0.5 or 1.0 liters per hectare (L/ha), or Polyglycol 26-2 was applied at 0.5 to 1.0 L/ha in all respective single and tankmixture treatments being evaluated.
(§2) Trials were established as randomized complete blocks (RCBD) with three to four replicates. Individual treatments were 2-2.5 meters (m) wide and 6-20 m long. An untreated control was included in each trial. All trial sites had naturally occurring populations of weeds.
(§3) Herbicides were applied with backpack or bicycle sprayers using compressed air, nitrogen (N2) or carbon dioxide (CO2) as a propellant. All sprayers delivered a uniform spray pattern that provided thorough coverage of the foliage using a water volume of 150-300 L/ha. All herbicides were applied post-emergence in the spring to early-summer At the time of herbicide applications, winter wheat crops were at the six-leaf to three-tiller stage. Broadleaf and grass weeds were at a similar stage of growth at the time of herbicide application, typically from five leaf to 3 tiller depending on the weed species and time of year.
(§4) The treated plots and control plots were rated blind at various intervals after application. […] The control of the target weeds was visually assessed as percent control, compared to an untreated control plot. The assessments were based on a percent visual reduction in pest plant biomass and/or stand reduction of weed population.
(§5) The efficacy of all treatments was assessed at 13-22 days after application (DAA) for an early season rating, 23-39 DAA for a mid-season rating, and 41-84 DAA for a late-season rating. The data were statistically analyzed using various statistical methods, generally including a Tukey's HSD Factorial Analysis of Variance with a significance level of 5%.
(§6) Colby's equation was used to determine the herbicidal effects expected from the mixtures (Colby, S. R. Calculation of the synergistic and antagonistic response of herbicide combinations. Weeds 1967, 15, 20-22). A t-test (alpha=0.05) between Colby predictions and observed combinations was used to test for significant differences indicating synergy or antagonism using replicate data.
(§7) Expected=A+B+C−(AB+AC+BC)/100+(ABC)/10,000

[2] = system: Viola arvensis Murr. (field violet, VIOAR); assay: Field trial, post-emergence % visual weed control, VIOAR
Text: as §1, §2, §3, §4, §5, §6, §7

[3] = system: Lamium purpureum L. (purple deadnettle, LAMPU); assay: Field trial, post-emergence % visual weed control, LAMPU; conditions: 15DAA
Text: as §1, §2, §3, §4, §5, §6, §7

[4] = system: Matricaria recutita L. (wild chamomile, MATCH); assay: Field trial, post-emergence % visual weed control, MATCH
Text: as §1, §2, §3, §4, §5, §6, §7

[5] = system: Stellaria media (L.) Vill. (common chickweed, STEME); assay: Field trial, post-emergence % visual weed control, STEME
Text: as §1, §2, §3, §4, §5, §6, §7

[6] = system: Centaurea cyanus (cornflower, CENCY); assay: Field trial, post-emergence % visual weed control, CENCY
Text: as §1, §2, §3, §4, §5, §6, §7

[7] = system: Galium aparine L. (catchweed bedstraw, GALAP); assay: Field trial, post-emergence % visual weed control, GALAP; conditions: 28DAA
Text: as §1, §2, §3, §4, §5
(§8) Colby's equation was used to determine the herbicidal effects expected from the mixtures (Colby, S. R. Calculation of the synergistic and antagonistic response of herbicide combinations. Weeds 1967, 15, 20-22). […]

[8] = system: Solanum nigrum L. (black nightshade, SOLNI); assay: Field trial, post-emergence % visual weed control, SOLNI
Text: as §1, §2, §3, §4, §5, §6, §7

[9] = system: Consolida regalis S. F. Gray (branching larkspur, CNSRE); assay: Field trial, post-emergence % visual weed control, CNSRE
Text: as §1, §2, §3, §4, §5, §6, §7

[10] = system: Agropyron repens L. (quackgrass, AGRRE); assay: Field trial, post-emergence % visual weed control, AGRRE; conditions: 14DAA
Text: as §1, §2, §3, §4, §5, §8

[11] = system: Alopecurus myosuroides Huds. (blackgrass, ALOMY); assay: Field trial, post-emergence % visual weed control, ALOMY; conditions: 15DAA
Text: as §1, §2, §3, §4, §5, §8

[12] = system: Apera spica-venti (L.) Beauv. (windgrass, APESV); assay: Field trial, post-emergence % visual weed control, APESV
Text: as §1, §2, §3, §4, §5, §6, §7

[13] = system: Echinochloa crus-galli (L.) P. Beauv. (barnyardgrass, ECHCG); assay: Field trial, post-emergence % visual weed control, ECHCG
Text: as §1, §2, §3, §4, §5, §6, §7

SMILES: COc1ncc(F)c2nc(S(=O)(=O)Nc3c(F)cccc3F)nn12 [Florasulam, N-(2,6-difluorophenyl)-8-fluoro-5-methoxy[1,2,4]triazolo[1,5-c]pyrimidine-2-sulfonamide]
- Mean % Weed Control ([1]; 3 g ai/ha): 30.0%
- Mean % Weed Control ([1]; 4 g ai/ha): 35.0%
- Mean % Weed Control ([2]; 14DAA, 3 g ai/ha): 0.0%
- Mean % Weed Control ([2]; 56DAA, 4 g ai/ha): 20.0%
- Mean % Weed Control ([3]; 3.75 g ai/ha): 0.0%
- Mean % Weed Control ([4]; 15DAA, 3.75 g ai/ha): 10.0%
- Mean % Weed Control ([4]; 61DAA, 3.75 g ai/ha): 85.0% and 67.4%
- Mean % Weed Control ([4]; 78DAA, 3.75 g ai/ha): 76.3%
- Mean % Weed Control ([5]; 15DAA, 3.75 g ai/ha): 0.0%
- Mean % Weed Control ([5]; 61DAA, 3.75 g ai/ha): 68.8% and 56.1%
- Mean % Weed Control ([5]; 78DAA, 3.75 g ai/ha): 31.3%
- Mean % Weed Control ([6]; 28DAA, 3 g ai/ha): 48.8%
- Mean % Weed Control ([6]; 28DAA, 4 g ai/ha): 75.0%
- Mean % Weed Control ([6]; 56DAA, 3 g ai/ha): 27.5% and 48.8%
- Mean % Weed Control ([6]; 77DAA, 3 g ai/ha): 40.0%
- Mean % Weed Control ([6]; 77DAA, 4 g ai/ha): 82.5%
- Mean % Weed Control ([6]; 84DAA, 4 g ai/ha): 30.0%
- Mean % Weed Control ([7]; 3 g ai/ha): 57.5%
- Mean % Weed Control ([8]; 29DAA, 6.25 g ai/ha): 40.0%
- Mean % Weed Control ([8]; 56DAA, 6.25 g ai/ha): 20.0%
- Mean % Weed Control ([9]; 31DAA, 3 g ai/ha): 75.0%
- Mean % Weed Control ([9]; 31DAA, 4 g ai/ha): 75.0%
- Mean % Weed Control ([9]; 53DAA, 3 g ai/ha): 78.5%
- Mean % Weed Control ([9]; 53DAA, 4 g ai/ha): 79.5%
- Mean % Weed Control ([9]; 84DAA, 3 g ai/ha): 79%
- Mean % Weed Control ([9]; 84DAA, 4 g ai/ha): 80%
- Mean % Weed Control ([10]; 4 g ai/ha): 0.0%
- Mean % Weed Control ([11]; 3 g ai/ha): 2.5%
- Mean % Weed Control ([12]; 14DAA, 3 g ai/ha): 0.0%
- Mean % Weed Control ([12]; 14DAA, 4 g ai/ha): 0.0%
- Mean % Weed Control ([12]; 28DAA, 3 g ai/ha): 0.0%
- Mean % Weed Control ([12]; 28DAA, 4 g ai/ha): 0.0%
- Mean % Weed Control ([12]; 56DAA, 3 g ai/ha): 0.0%
- Mean % Weed Control ([12]; 56DAA, 4 g ai/ha): 0.0%
- Mean % Weed Control ([13]; 14DAA, 6.25 g ai/ha): 20.0%
- Mean % Weed Control ([13]; 29DAA, 6.25 g ai/ha): 10.0%
- Mean % Weed Control ([13]; 56DAA, 6.25 g ai/ha): 10.0%

SMILES: COC(=O)c1nc(-c2ccc(Cl)c(OC)c2F)cc(N)c1Cl [Halauxifen-Methyl, methyl 4-amino-3-chloro-6-(4-chloro-2-fluoro-3-methoxyphenyl)pyridine-2-carboxylate]
- Mean % Weed Control ([1]; 3 g ae/ha): 0.0%
- Mean % Weed Control ([1]; 4 g ae/ha): 0.0%
- Mean % Weed Control ([2]; 14DAA, 3 g ae/ha): 0.0%
- Mean % Weed Control ([2]; 14DAA, 4 g ae/ha): 0.0%
- Mean % Weed Control ([2]; 56DAA, 3 g ae/ha): 0.0%
- Mean % Weed Control ([3]; 4.8 g ae/ha): 72.5%
- Mean % Weed Control ([3]; 6 g ae/ha): 55.0%
- Mean % Weed Control ([4]; 15DAA, 4.8 g ae/ha): 0.0%
- Mean % Weed Control ([4]; 61DAA, 4.8 g ae/ha): 0.0%
- Mean % Weed Control ([4]; 61DAA, 6 g ae/ha): 1.3% and 3.2%
- Mean % Weed Control ([4]; 78DAA, 4.8 g ae/ha): 6.3%
- Mean % Weed Control ([4]; 78DAA, 6 g ae/ha): 6.3%
- Mean % Weed Control ([5]; 15DAA, 4.8 g ae/ha): 0.0%
- Mean % Weed Control ([5]; 15DAA, 6 g ae/ha): 0.0%
- Mean % Weed Control ([5]; 61DAA, 4.8 g ae/ha): 0.0%
- Mean % Weed Control ([5]; 61DAA, 6 g ae/ha): 1.3% and 3.2%
- Mean % Weed Control ([5]; 78DAA, 4.8 g ae/ha): 6.3%
- Mean % Weed Control ([5]; 78DAA, 6 g ae/ha): 8.8%
- Mean % Weed Control ([6]; 28DAA, 3 g ae/ha): 75.0%
- Mean % Weed Control ([6]; 77DAA, 3 g ae/ha): 82.5%
- Mean % Weed Control ([6]; 84DAA, 3 g ae/ha): 1.3%
- Mean % Weed Control ([6]; 84DAA, 4 g ae/ha): 27.5%
- Mean % Weed Control ([7]; 3 g ae/ha): 0.0%
- Mean % Weed Control ([8]; 29DAA, 3 g ae/ha): 10.0%
- Mean % Weed Control ([8]; 56DAA, 3 g ae/ha): 0.0%
- Mean % Weed Control ([9]; 31DAA, 3 g ae/ha): 68.3%
- Mean % Weed Control ([9]; 31DAA, 4 g ae/ha): 70.8%
- Mean % Weed Control ([9]; 53DAA, 3 g ae/ha): 70.0%
- Mean % Weed Control ([9]; 53DAA, 4 g ae/ha): 72.0%
- Mean % Weed Control ([9]; 84DAA, 3 g ae/ha): 70.0%
- Mean % Weed Control ([9]; 84DAA, 4 g ae/ha): 72.5%
- Mean % Weed Control ([10]; 3 g ae/ha): 0.0%
- Mean % Weed Control ([11]; 4 g ae/ha): 0.0%
- Mean % Weed Control ([12]; 14DAA, 3 g ae/ha): 0.0%
- Mean % Weed Control ([12]; 14DAA, 4 g ae/ha): 0.0%
- Mean % Weed Control ([12]; 28DAA, 3 g ae/ha): 0.0%
- Mean % Weed Control ([12]; 28DAA, 4 g ae/ha): 0.0%
- Mean % Weed Control ([12]; 56DAA, 3 g ae/ha): 0.0%
- Mean % Weed Control ([13]; 14DAA, 3 g ae/ha): 0.0%
- Mean % Weed Control ([13]; 29DAA, 3 g ae/ha): 0.0%
- Mean % Weed Control ([13]; 56DAA, 3 g ae/ha): 0.0%
